Results reported in US7160898B2, “Pharmacological treatment for sleep apnea” (Board of Trustees of The University of Illinois, priority 2002, dated 2007).
Entries after “also recorded” stand apart in the source; their conditions may differ.

What was measured:
[1] = test system: rat model of spontaneous sleep apnea; test: Spontaneous sleep apnea in freely moving rats after GR38032F (Example 2); assay type: in vivo, rat (Sprague-Dawley); conditions: 1 mg/kg i.p.
Experimental: Adult, male Sprague-Dawley rats (Sasco-King, Wilmington, Mass.; usually 8 per test group; 300 g) were maintained on a 12-hour light (08:00–20:00 hour)/12-hour dark (20:00–08:00 hour) cycle for one week, housed in individual cages and given ad libitum access to food and water. Following the one week of acclimatization, animals were subjected to the following surgical procedures.
Acclimatized animals were anesthetized for the implantation of cortical electrodes for electroencephalogram (EEG) recording and neck muscle electrodes for electromyogram (EMG) recording using a mixture of ketamine (Vedco, Inc., St. Joseph, Mo.; 100 mg/ml) and acetylpromazine (Vedco, Inc., St. Joseph, Mo.; 10 mg/ml; 4:1, volume/volume) at a volume of 1 ml/kg body weight. The surface of the skull was exposed surgically and cleaned with a 20% solution of hydrogen peroxide followed by a solution of 95% isopropyl alcohol. Next, a dental preparation of sodium fluoride (Flura-GEL®, Saslow Dental, Mt. Prospect, Ill.) was applied to harden the skull above the parietal cortex and allowed to remain in place for 5 minutes. The fluoride mixture was then removed from the skull above the parietal cortex. The EEG electrodes consisting of four stainless steel machine screws, having leads attached thereto, were threaded into the skull to rest on the dura over the parietal cortex. A thin layer of Justi® resin cement (Saslow Dental, Mt. Prospect, Ill.) was applied to cover the screw heads (of screws implanted in the skull) and surrounding skull to further promote the adhesion of the implant. EMG electrodes consisting of two ball-shaped wires were inserted into the bilateral neck musculature. All leads (i.e., EEG and EMG leads) were soldered to a miniature connector (39F1401, Newark Electronics, Schaumburg, Ill.). Lastly, the entire assembly was fixed to the skull with dental cement.
After surgery, all animals were allowed to recover for one week before being subjected to another surgery that involved implantation of a radiotelemetry transmitter (TA11-PXT, Data Sciences International, St. Paul, Minn.) for monitoring blood pressure (BP) and heart period (HP), estimated as pulse interval. After the animals were anesthetized (as described above), the hair from the subxiphoid space to the pelvis was removed. The entire area was scrubbed with iodine and rinsed with alcohol and saline. A 4–6 cm midline abdominal incision was made to allow good visualization of the area from the bifurcation of the aorta to the renal arteries. A retractor was used to expose the contents of the abdomen and the intestine was held back using saline moistened gauze sponges. The aorta was dissected from the surrounding fat and connective tissues using sterile cotton applicators. A 3-0 silk suture was placed beneath the aorta and traction was applied to the suture to restrict the blood flow. Then the implant (TA11-PXT) was held by forceps while the aorta was punctured just cranial to the bifurcation using a 21-gauge needle bent at the beveled end. The tip of the catheter was inserted under the needle using the needle as a guide until the thin-walled BP sensor section was within the vessel. […]
Physiological parameters (see below) from each animal were recorded on 2 occasions in random order, with recordings for an individual animal separated for at least 3 days. […]

[2] = test system: spontaneous sleep-related central apneas; test: Induction and suppression of sleep apneas by serotonin and GR38032F (Example 3); assay type: in vivo, rat (Sprague-Dawley)
Experimental: Ten adult male Sprague-Dawley rats (Sasco-King, Wilmington, Mass.; 300 g) were maintained on a 12-h light (08:00–20:00 hour)/12-hour dark (20:00–08:00) cycle for one week, housed in individual cages, and given ad libitum access to food and water. Following the one week of acclimatization, animals were prepared for physiological testing via the surgical procedures (i.e., implantation of cortical electrodes for EEG recording and neck muscle electrodes for EMG recording, implantation of a radiotelemetry transmitter for BP and HP monitoring) as set forth above in Example 1. After completion of the surgical procedures, animals were allowed a one week recovery period prior to use in the present study. Each animal was recorded on four occasions, with recordings for an individual animal separated by at least three days. Fifteen minutes prior to each recording, each animal received (via intraperitoneal injection), in random order, one of the following: (a) saline solution (control); (b) 0.79 mg/kg serotonin; (c) 0.1 mg/kg GR38032F plus 0.79 mg/kg serotonin; or (d) 0.1 mg/kg GR38032F. For the GR38032F+serotonin test group, 0.1 mg/kg GR38032F was administered at time 09:30 followed by 0.79 mg/kg serotonin at time 09:45. Polygraphic recordings were made from 10:00–16:00. Respiration BP, EEG, and EMG data were determined and recorded via the experimental procedure as specifically set forth above in Example 2. As in Example 2, sleep apneas, defined as cessation of respiratory effort for at least 2.5 s, were scored for each recording session and were associated with the stage in which they occurred: NREM or REM sleep. The duration requirement of 2.5 s represents at least two “missed” breaths, which is analogous to a 10-s apnea duration requirement in humans. The effects of sleep stage (NREM vs REM) and injection (control vs. administration of either serotonin alone, GR38032F+serotonin, or GR38032F alone) on apnea indexes, respiratory pattern, BP, and HP were tested using analysis of variance (ANOVA) with repeated measures. Multiple comparisons were controlled using Fisher's protected least-significance difference (PLSD). One-way ANOVA was also performed by nonparametric (Kruskal-Wallis) analysis. Conclusions using parametric and nonparametric ANOVA were identical in all cases.

Structure (SMILES): Cc1nccn1CC1CCc2c(c3ccccc3n2C)C1=O.Cl.O.O (centres unmarked) [GR38032F, 1,2,3,9-tetrahydro-9-methyl-3-[(2-methylimidazol-1-yl)methyl]carbazole-4-one, hydrochloride, dihydrate]
- time for which REM sleep apneas were completely abolished following injection [1]: at least 4 hours
- rate of apneas per hour of REM sleep ([1]; 6 hour recording period, p=0.01 2-way ANOVA): significant suppressant effect
- rate of apneas per hour of NREM sleep ([1]; first 2 hours of recording, paired t-tests p<0.01): significant suppression of apneas
- spontaneous apneas in REM sleep ([1]; first 4 hours of recordings): no animal exhibited a single spontaneous apnea in REM sleep
- rate of apneas per hour of NREM sleep ([1]; whole 6 hours of recording, two-way ANOVA vs saline control): no significant effect of treatment or time over 6 hours
- antagonism of the serotonin-induced increase of REM sleep apneas ([2]; 0.1 mg/kg GR38032F i.p. 15 min before 0.79 mg/kg serotonin, hydrochloride, dihydrate): abolished; also recorded: fully blocked
- effect on REM sleep spontaneous apneas ([2]; GR38032F alone 0.1 mg/kg i.p.): had no effect on REM sleep spontaneous apneas
- spontaneous apnea index during NREM sleep ([2]; i.p., serotonin 0.79 mg/kg, GR38032F 0.1 mg/kg, 6 hour recording): not affected by any drug treatment
